The record followed here is PubChem BioAssay (NCI).

Several values for one entry are separate records, joined by “and”; a condition that tells them apart may be missing. Equal entries are not always repeated.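 These data come from cells grown in 96-well plates and exposed to compound for 48 hours at five concentrations. GI50 is the concentration that inhibits growth by half. TGI marks complete inhibition of growth.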

Assay in all cases: NCI anticancer screen, dose series, 48 h
Assay [1] relates to OVCAR-3 ovarian.
Assay [2] deals with HOP-92 NSCLC.
Assay [3] deals with NCI-H226 lung.
Assay [4] has as its system SF-295 CNS.
The subject of assay [5] is HCC-2998 colon.
The test system of assay [6] is U251 CNS.
Assay [7] relates to SR leukemia.
Assay [8] concerns HCT-15 colon.
The subject of assay [9] is SK-OV-3 ovarian.
In assay [10] the test system is SNB-19 CNS.

Consider `NCCCNCCSSCCCCS(=O)O`, for which the TGI was 44.8 µM in [1]; more than 100 µM in assay [2]; more than 100 µM in assay [3]; more than 100 µM in assay [4]; more than 100 µM in assay [5]; more than 100 µM in [6]. In addition, the TGI in assay [7] is 29.3 µM; in assay [8], more than 100 µM; in assay [9] it was more than 100 µM; in assay [10], more than 100 µM.

As for `CCCNC(=S)N/N=C(\C)c1ccccn1`, the GI50 in [1] is less than 0.01 µM; in [2] it was 0.115 µM; in assay [3] it was 0.291 µM; in [4], 0.294 µM; in assay [5], 0.523 µM; in assay [6], 0.0497 µM. The GI50 was 0.0517 µM in [7], 0.0514 µM in assay [8], 0.615 µM in assay [9] and 1.81 µM in assay [10]. Moreover, the TGI in assay [1] is more than 100 µM; in assay [2], more than 100 µM; in assay [3], 4.79 µM; in [4] it was more than 100 µM; in [5], more than 100 µM; in assay [6] it was more than 100 µM. The TGI in assay [7] was 4.37 µM; in assay [8], more than 100 µM; in [9], more than 100 µM; in assay [10], more than 100 µM.

Turning to `CC[C@H](C)[C@H](NC(=O)[C@H]1CCCCN1C)C(=O)N(C)[C@H](CCc1nc(C(=O)N[C@@H](Cc2ccccc2)C[C@H](C)C(=O)OC)cs1)C(C)C`, the GI50 in [1] was 0.0867 µM; in assay [2] it was 0.292 µM; in assay [3] it was 1.07 µM; in assay [4], 0.459 µM; in assay [5], 0.694 µM; in assay [6], 0.345 µM. Moreover, the GI50 was 0.0726 µM in [7], 0.712 µM in [8], 0.797 µM in assay [9] and 0.151 µM in assay [10]. In addition, the TGI in [2] is 8.33 µM; in assay [3], more than 12.4 µM; in assay [4], more than 25 µM; in assay [5], more than 13.4 µM; in assay [6] it was more than 25 µM; in assay [7], 10.8 µM. The TGI in [8], in [9] and in [10] was more than 25 µM each time.

For `O=C(NC1CCCCCC1)C1C(=O)N(C2CCCCCC2)C(=O)/C1=N\O` (centres undefined), the TGI in [1] was 37.6 µM; in assay [2] it was 46.1 µM; in assay [3], more than 100 µM; in [4], more than 100 µM; in [5], 40.2 µM; in assay [6], 34.9 µM. The TGI in assay [7] is 54 µM; in [8], more than 100 µM; in assay [9] it was more than 100 µM; in assay [10], more than 100 µM.

`Cc1cc(C2CCCCC2)n(O)c(=O)c1`: the GI50 is 0.521 µM in assay [1]; 2.2 µM in [3]; 0.81 µM in assay [4]; 2.94 µM in assay [5]; 1.13 µM in assay [6]; 0.66 µM in [7]. In addition, the GI50 was 0.655 µM in [8], 1.91 µM in assay [9] and 2.37 µM in assay [10]. The TGI in [1] is 54 µM; in assay [2], 21.5 µM; in assay [3] it was more than 100 µM; in assay [4] it was 86.8 µM and > 100 µM; in [5], > 100 µM and 35.5 µM; in [7], more than 100 µM. Moreover, the TGI in assay [8] is > 100 µM and 38.1 µM; in assay [9] it was more than 100 µM; in assay [10], more than 100 µM.

With `Cc1cc(NS(=O)(=O)c2ccc(NC(=O)c3cccc4c(=O)c5ccccc5[nH]c34)cc2)no1`, the TGI in assay [1] is 95.5 µM; in assay [2], more than 100 µM; in [3], more than 100 µM; in [5], more than 100 µM; in assay [6], more than 100 µM; in assay [7], 80.8 µM. Also, the TGI in assay [8] is more than 100 µM; in assay [9] it was 72.7 µM; in assay [10] it was more than 100 µM.

For `CNC=O.[O]=[Ge].[O]=[Ge].[O]=[Ge].[O]=[Ge][OH].[O]=[Ge][OH]`, the TGI in assay [1], in [2], in [3], in assay [4], in [5] and in [7] was more than 100 µM throughout. Moreover, the TGI in [8] and in assay [10] was more than 100 µM each time.

For `COC(=O)C1=C(c2ccc3c(c2)OCO3)O[C@H](c2ccc3c(c2)OCO3)[C@H]1COC(C)=O`, the TGI in assay [1], in [2], in [3], in [4], in assay [5] and in [6] was more than 100 µM each time. Also, the TGI in [7], in assay [8] and in [9] was more than 100 µM throughout.

For the compound `C[C@]12CC[C@@H]3c4ccc(O)cc4CC[C@H]3[C@@H]1CC[C@@H]2NS(=O)(=O)c1ccc(C(F)(F)F)cc1`, the GI50 in [2] was 1.51 µM; in assay [3], 1.68 µM; in [4], 1.91 µM; in assay [5], 2.11 µM; in assay [6], 1.75 µM; in assay [7] it was 2.43 µM. The GI50 was 1.68 µM in [8], 2.53 µM in assay [9] and 3.28 µM in [10]. In addition, the TGI in assay [2] amounted to 3.28 µM; in assay [3], 3.2 µM; in [4], 3.9 µM; in [5], 4.37 µM; in [6], 3.3 µM; in [7], 7.5 µM. Also, the TGI in assay [8] is 3.62 µM; in assay [9] it was 6.21 µM; in [10], 11.6 µM.

On to `COc1ccc(-c2nc(-c3nc4ccc(C)cc4[nH]3)c3ccccn23)cc1`, for which the GI50 in assay [1] is 2.99 µM; in assay [2], 0.416 µM; in assay [3], 3.88 µM; in assay [5] it was 2.93 µM; in assay [6], 3.27 µM; in assay [7], 2.77 µM. Besides, the values for the GI50 in assay [8], in assay [9] and in assay [10] were 2.83 µM, 6.95 µM and 2.97 µM, respectively. The TGI in assay [1] is 10.2 µM; in [2], 4.36 µM; in assay [3], more than 100 µM; in [5] it was 7.01 µM; in [6] it was more than 100 µM; in [7], more than 100 µM. Further, the TGI in assay [8], in [9] and in [10] was more than 100 µM in each case.
